The values that follow come from patent US6338963B1, “Use of carbon monoxide dependent guanylyl cyclase modifiers to stimulate neuritogenesis” (NeoTherapeutics, Inc., priority 1994, dated 2002).

For experiment [1], the system named is basal forebrain cholinergic neurons. To be noted: mouse NGF 25 μg/ml, Barnett et al.; cited from earlier work.
A further experiment has as its system PC12 cells. As to the kind of experiment: Neuritogenesis in PC12 cells. To be noted: NGF 40 ng/ml. It counts as cell-based, rat. The method, then:
Much of the work performed in the characterization of the compounds of the present invention involved the use of PC12 cells. These cells are derived from a rat pheochromocytoma and when grown in the presence of NGF, extend neurites, cease cell division and assume many characteristics of sympathetic neurons. When cultured in the absence of nerve growth factor (NGF), few PC12 cells have neurites greater than one cell diameter. Addition of saturating concentrations of NGF for 48 hours stimulates neurite outgrowth in about 20-35% of the cells. Because they constitute a homogeneous population of neuronal-like cells, without contaminating astroglia type cells, it is possible to study the direct effects of the purine based compounds on neurite outgrowth in these cells.
Cells cultured in RPMI 1640 with 1.5% horse serum and 1.5% fetal bovine serum were re-plated onto poly-ornithine coated 24-well culture plates (2.5×10^4 cells per well). AIT-082 and NGF were added to the various cultures immediately upon plating. After 48 hours, medium was removed and the cells irnmediately fixed in 10% formalin and PBS for 10 minutes. Cells and neurites were counted within 2 days of fixation.
A neurite was defined as a process extending from the cell at least 1 cell body diameter in length and displaying a growth cone at its tip. For each treatment, 2 representative microscope fields were counted from each of 6 sister cultures receiving identical treatments. The total number of cells counted per well (approximately 100 cells) and the total number of cells containing neurites in each well were used to determine fraction of neurite-bearing cells. The mean values (±SEM) were then determined for each of the treatments. To facilitate comparison neurite outgrowth was expressed relative to the proportion of cells bearing neurites in the presence of NGF alone (NGF=100%). The effects of compounds with and without NGF were compared by analysis of variance (ANOVA) followed by Tukey's test for significance.
The results are shown in FIG. 3 where the curve represents different levels of AIT-082 plus saturating concentrations (40 ng/ml) NGF. The center horizontal line represents control values for cells cultured in the presence of 40 ng/ml NGF alone. Upper and lower horizontal lines are indicative of confidence limits of NGF alone as determined using standard statistical methods.

A further experiment relates to FGF-2 mRNA. As to the kind of experiment: Northern/slot blot of neurotrophin mRNA from astrocytes: FGF-2. It counts as cell-based, NIH Swiss mice. To be noted: NGF 40 ng/ml, 24 hours. Further details: key to FGF-2 mRNA: The conditions which produced a detectable amount of each of the neurotrophin mRNAs are indicated by a “+”; a “++” indicating that at least twice the detectable amount was present; Those blots which were negative are indicated by a “−”. The method, then: (§1) Induction of neurotrophin mRNA was determined by northern blot analysis of astrocytes cultured with AIT-082, NGF, or both. The cells were harvested and RNA extracted at 24 hours after treatment.
(§2) More particularly, astrocytes from the cerebral cortex of NIH Swiss mice (Harlan) were isolated. Briefly, newborn pups (0-24 hours) were decapitated. Their brains were removed under aseptic conditions and were placed in modified Dulbecco's medium (DMEM) containing 20% heat-inactivated horse serum (Hyclone) (“complete medium”). The neopallium was then dissected from each cerebral hemisphere and minced into 1 mm cubes.
(§3) The astrocytes were then isolated by mechanical dissociation. The cubes were vortexed at maximum speed for one minute. The cell suspension was then passed first through 75 mm Nitex then through 10 mm Nitex. The resulting cell suspension was diluted in complete medium to a final concentration of one brain per 10 ml of complete medium. Ten milliliters of the diluted cell suspension was added to each 100 mm Falcon tissue culture plate (Fisher). After 3 days the medium was replaced with 10 ml fresh complete medium and subsequently was replaced twice weekly with DMEM containing 10% heat inactivated horse serum (“growth medium”). After two weeks in culture the astrocytes formed a confluent monolayer.
(§4) For RNA extraction, astrocytes were trypsinized. The astrocytes were then replated onto 100 mm PORN coated plates at a cell density of 10^6 cells per plate (10 ml growth medium). After 2 hrs PBS, guanosine (Guo), or GTP at 10 mM were added to the appropriate plates. Total RNA was harvested from 1.5×10^7 cells for each treatment, 4 and 24 hrs after treatment using TRIzol reagent and supplier protocol (GIBCO BRL/Life Technologies, Inc.). For slot blots, total RNA was bound to Hybond-N filters (Amersham/United States Biochemicals) as described in Transfer and Immobilization of Nucleic Acids and Proteins to S & S Solid Supports (S and S Protocols: Schleicher & Schuell, New Hampshire, USA). Northern blots were also performed using […] total RNA from each sample. These were electrophoresed in 1% agarose gels containing formaldehyde and blotted onto Hybond-N filters according to S and S protocols.
(§5) The blots were probed with ^32P-labeled cDNA (NGF, NT-3 and BDNF probes) or oligonucleotide probe (FGF-2) by hybridization in Piperazine-N,N′-bis-(2-ethanesulfonic acid) (PIPES) buffer (50 mM PIPES, pH 6.8; 50 mM NaH2PO4; 0.1 M NaCl; 5% SDS and 1 mM EDTA) overnight at 50° C. […] Various concentrations ([…] of total RNA), as determined by spectrophotometry, of each sample were blotted and probed so that quantification could be done after insuring a linear film response. Quantification was performed using MCID Image Analysis (St. Catherine's, Ontario, Canada). […]

For another experiment, the system named is BDNF mRNA. The experiment is described as follows: Northern blot of neurotrophin mRNA from astrocytes: BDNF. Also noted: key: The conditions which produced a detectable amount of each of the neurotrophin mRNAs are indicated by a “+”; a “++” indicating that at least twice the detectable amount was present; Those blots which were negative are indicated by a “−”. Format: cell-based, NIH Swiss mice. To be noted: NGF 40 ng/ml, 24 hours. As for the experimental part:
as §1, §2, §3
(§6) For RNA extraction, astrocytes were trypsinized. The astrocytes were then replated onto 100 mm PORN coated plates at a cell density of 10^6 cells per plate (10 ml growth medium). […]
as §5

A further experiment relates to NGF mRNA. As to the kind of experiment: Northern/slot blot of neurotrophin mRNA from astrocytes: NGF. Also noted: key to NGF mRNA: The conditions which produced a detectable amount of each of the neurotrophin mRNAs are indicated by a “+”; a “++” indicating that at least twice the detectable amount was present; Those blots which were negative are indicated by a “−”. Conditions: NGF 40 ng/ml, 24 hours. Format: cell-based, NIH Swiss mice. As for the experimental part: as §1, §2, §3, §4, §5

In another experiment the test system is NT-3 mRNA. The experiment is described as follows: Northern blot of neurotrophin mRNA from astrocytes: NT-3. Format: cell-based, NIH Swiss mice. Further details: key: The conditions which produced a detectable amount of each of the neurotrophin mRNAs are indicated by a “+”; a “++” indicating that at least twice the detectable amount was present; Those blots which were negative are indicated by a “−”. To be noted: NGF 40 ng/ml, 24 hours. The method, then: as §1, §2, §3, §6, §5

As to NGF: nerve growth factor, the “rescue of ChAT-positive cells following the FFT lesion” value in experiment [1] is given as “robust rescue effect”. In addition, the “Proportion of cells bearing neurites, NGF alone” value with PC12 cells (Methemoglobin 1 μM) is 0.2 ± 0.02; with PC12 cells (Methylene Blue 5 μM), 0.24 ± 0.03; in the experiment on PC12 cells (Zn Protoporphyrin IX 1 μM), 0.22 ± 0.03; with PC12 cells (no inhibitor, 48 hours), 0.2 ± 0.02. Besides, in the experiment with FGF-2 mRNA, the “FGF-2 mRNA” value is reported as “−”. Further, the “BDNF mRNA” value in the experiment with BDNF mRNA is “+”. Also, the “NGF mRNA” value in the experiment on NGF mRNA was “−”. Further, in the experiment on NT-3 mRNA, the “NT-3 mRNA” value was “−”.
